GI50 and TGI data for nine compounds are collected here from PubChem BioAssay (NCI).

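Tested at 5 concentrations; 48 h exposure; 96-well plates; endpoints linearly interpolated, else capped at highest concentration. GI50 = concentration required for 50% inhibition of growth. Definition used: TGI = concentration required for complete inhibition of growth.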 A value given as a limit tells only on which side of the number the result lay.

Some test systems named below: CCRF-CEM leukemia; HT29 colon; LOX IMVI melanoma; MALME-3M melanoma; NCI-H460 lung; NCI-H522 lung; SF-268 CNS; SK-OV-3 ovarian; SNB-19 CNS; TK-10 renal.
What all share (experiment): growth of human tumour cells (NCI), 48 h

For `O=C(c1ccco1)c1nc2ccc(C(F)(F)F)cc2[n+]([O-])c1C(F)(F)F`, the GI50 was above 100 µM in the assay on CCRF-CEM leukemia; 29.9 µM in the assay on HT29 colon; above 100 µM in the assay on LOX IMVI melanoma; 27.9 µM in the assay on MALME-3M melanoma; 44 µM in the assay on NCI-H460 lung; above 100 µM in the assay on NCI-H522 lung. For the same compound, the GI50 in the assay on SF-268 CNS is 34.3 µM; in the assay on SK-OV-3 ovarian, 33.4 µM; with SNB-19 CNS it was 36.4 µM; in the assay on TK-10 renal, 28.8 µM. Further, the TGI with CCRF-CEM leukemia was above 100 µM; in the assay with HT29 colon it was above 100 µM; in the assay with LOX IMVI melanoma it was above 100 µM; in the assay with MALME-3M melanoma, 77.2 µM; with NCI-H460 lung it was above 100 µM; in the assay with NCI-H522 lung it was above 100 µM. In addition, the TGI with SF-268 CNS, in the assay with SK-OV-3 ovarian, in the assay on SNB-19 CNS and in the assay with TK-10 renal was above 100 µM throughout.

For the compound `COC(=O)CCCCN=Cc1c(O)c(O)c(C(C)C)c2cc(C)c(-c3c(C)cc4c(C(C)C)c(O)c(O)c(C=NCCCCC(=O)OC)c4c3O)c(O)c12`, the GI50 with CCRF-CEM leukemia is 0.746 µM; in the assay with HT29 colon it was 0.978 µM; in the assay on LOX IMVI melanoma it was 0.822 µM; in the assay with MALME-3M melanoma, 1.47 µM; in the assay with NCI-H460 lung it was 1.04 µM; in the assay on NCI-H522 lung, 0.838 µM. In addition, the GI50 in the assay on SF-268 CNS was 1.34 µM; in the assay on SK-OV-3 ovarian, 0.976 µM; with SNB-19 CNS, 0.713 µM; with TK-10 renal, 1.05 µM. Further, the TGI with CCRF-CEM leukemia was 17.5 µM; with HT29 colon, 17.1 µM; with LOX IMVI melanoma, 2.43 µM; with MALME-3M melanoma it was above 32.5 µM; with NCI-H460 lung, 9.48 µM; with NCI-H522 lung, 4.43 µM. For the same compound, the TGI is above 32.5 µM in the assay with SF-268 CNS, 3.08 µM in the assay with SK-OV-3 ovarian, above 32.5 µM in the assay on SNB-19 CNS and above 32.5 µM with TK-10 renal.

With `N=C1CSC2=NC3=C(CCC/C3=C\c3ccccc3)C(c3ccccc3)N12` (stereo not given), the TGI was 8.61 µM in the assay with CCRF-CEM leukemia; 11.5 µM in the assay with HT29 colon; 4.96 µM with LOX IMVI melanoma; 39.3 µM in the assay with MALME-3M melanoma; 14.7 µM with NCI-H460 lung; 9.71 µM in the assay on NCI-H522 lung. The TGI in the assay on SF-268 CNS was 32.9 µM; in the assay with SK-OV-3 ovarian, 28.4 µM; in the assay on SNB-19 CNS it was 19.9 µM; in the assay with TK-10 renal, 18.1 µM.

For `COC(=O)c1cc2c3ccccc3[nH]c2c2ncccc12`, the GI50 with CCRF-CEM leukemia was 32.4 µM; in the assay with HT29 colon it was 59.2 µM; in the assay on LOX IMVI melanoma, 9.46 µM; in the assay on MALME-3M melanoma, above 100 µM; with NCI-H460 lung, 51.4 µM; in the assay with NCI-H522 lung, 86 µM. Moreover, the GI50 in the assay on SF-268 CNS was 53.5 µM; in the assay on SK-OV-3 ovarian, 43.3 µM; in the assay on SNB-19 CNS, 66.5 µM; in the assay with TK-10 renal, 12 µM. Moreover, the TGI in the assay with CCRF-CEM leukemia, in the assay on HT29 colon, in the assay on LOX IMVI melanoma, in the assay on MALME-3M melanoma, in the assay on NCI-H460 lung and in the assay on NCI-H522 lung was above 100 µM each time. Besides, the TGI in the assay on SF-268 CNS, with SK-OV-3 ovarian, in the assay on SNB-19 CNS and in the assay on TK-10 renal was above 100 µM throughout.

For `O=C1CNCCCN2CCN(CCCNCC(=O)Nc3ccc(cc3)S(=O)(=O)c3ccc(cc3)NC(=O)CNCCCN3CCN(CCCNCC(=O)Nc4ccc(cc4)S(=O)(=O)c4ccc(cc4)N1)CC3)CC2`, the TGI was above 100 µM in the assay with CCRF-CEM leukemia; above 67.5 µM in the assay on HT29 colon; above 100 µM in the assay with LOX IMVI melanoma; 24.2 µM in the assay on MALME-3M melanoma; 33.8 µM in the assay with NCI-H460 lung; 53.8 µM in the assay on NCI-H522 lung. For the same compound, the TGI in the assay with SF-268 CNS was above 55.4 µM; in the assay with SK-OV-3 ovarian, above 100 µM; in the assay with SNB-19 CNS, above 100 µM; in the assay on TK-10 renal, 56.5 µM.

For the compound `N#Cc1ccc(C#Cc2ccccc2C#CCCCCO)cc1`, the GI50 in the assay on CCRF-CEM leukemia is 14.8 µM; in the assay on HT29 colon, 46 µM; in the assay on LOX IMVI melanoma, 18.3 µM; in the assay with MALME-3M melanoma, 21 µM; with NCI-H460 lung it was 19.7 µM; in the assay with NCI-H522 lung, 16.1 µM. The GI50 in the assay with SF-268 CNS is 18.9 µM; in the assay on SK-OV-3 ovarian, 18.2 µM; in the assay on SNB-19 CNS it was 15.8 µM; in the assay on TK-10 renal it was 16.5 µM. Besides, the TGI in the assay with CCRF-CEM leukemia was 29.1 µM; in the assay on HT29 colon, above 100 µM; with LOX IMVI melanoma, 32.5 µM; in the assay with MALME-3M melanoma it was 38.7 µM; in the assay on NCI-H460 lung it was 49 µM; with NCI-H522 lung, 31.1 µM. Further, the TGI in the assay on SF-268 CNS amounted to 40.7 µM; in the assay with SK-OV-3 ovarian it was 33.5 µM; with SNB-19 CNS, 29.9 µM; in the assay with TK-10 renal, 33.5 µM.

Take `COC(=O)CC(=O)C[P+](c1ccccc1)(c1ccccc1)c1ccccc1`: the TGI in the assay on CCRF-CEM leukemia was above 218 µM; in the assay with HT29 colon, above 218 µM; with LOX IMVI melanoma it was above 218 µM; in the assay with MALME-3M melanoma it was above 218 µM; in the assay on NCI-H460 lung it was above 218 µM; with NCI-H522 lung, 86.8 µM. In addition, the TGI with SF-268 CNS, in the assay on SK-OV-3 ovarian, in the assay on SNB-19 CNS and in the assay with TK-10 renal was above 218 µM in each case.

Consider `Cc1ccc(C)c(NC(=O)CC/C(=N\NC(=O)C(=O)NN)C(C)C(=O)c2ccc(O)cc2)c1` (stereo not given), for which the TGI in the assay on CCRF-CEM leukemia, with HT29 colon, in the assay with LOX IMVI melanoma, in the assay with MALME-3M melanoma, in the assay on NCI-H460 lung and with NCI-H522 lung was above 100 µM throughout. Moreover, the TGI in the assay on SF-268 CNS, in the assay with SK-OV-3 ovarian, in the assay on SNB-19 CNS and in the assay on TK-10 renal was above 100 µM in each case.

Regarding `Cc1cc(N(CCOS(C)(=O)=O)CCOS(C)(=O)=O)ccc1C=Nc1ccc(-c2nc(Cc3ccccc3)sc2C)cc1`, the TGI was determined as 24.3 µM in the assay on CCRF-CEM leukemia; 21.4 µM with HT29 colon; 20.2 µM in the assay with LOX IMVI melanoma; 26.8 µM in the assay on MALME-3M melanoma; 5.03 µM with NCI-H460 lung; 0.648 µM in the assay with NCI-H522 lung. The TGI is 20.4 µM in the assay with SF-268 CNS, 4.56 µM in the assay on SK-OV-3 ovarian, 43.9 µM in the assay on SNB-19 CNS and 33.9 µM with TK-10 renal.
